Experimental data published in ChEMBL document CHEMBL1121822, “Sulfonate analogues of adenosine nucleotides as inhibitors of nucleotide-binding enzymes” (J Med Chem, 1981).

These compounds were tested against Alcohol dehydrogenase (Equus caballus, UniProt P00327+P00328) (assay: Inhibition constant was evaluated against horse liver alcohol dehydrogenase).

SMILES | Inhibition constant [mM]
Nc1ncnc2c1ncn2CCCS(=O)(=O)O | 4.9
Nc1ncnc2c1ncn2CCS(=O)(=O)O | 4.3
Nc1ncnc2c1ncn2C1O[C@H](CO)[C@H](S(=O)(=O)O)[C@H]1O (stereo partly specified) | 1.2
Nc1ncnc2c1ncn2C1O[C@H](CS(=O)(=O)O)[C@@H](O)[C@H]1O (stereo partly specified) | 0.18
COP(=O)(O)OC[C@H]1OC(n2cnc3c(N)ncnc32)[C@H](O)[C@@H]1O (stereo partly specified) | 0.44
Nc1ncnc2c1ncn2[C@@H]1O[C@H](COP(=O)(O)O)[C@@H](O)[C@H]1O [ADENOSINE PHOSPHATE] | 0.038
